{"source": "patent US20250311722A1", "about": "“IMPROVED BIOCIDE” (Purgos ApS, priority 2022, published 2025)", "key": {"[1]": {"conditions": "cited from earlier work"}, "[2]": {"tested_on": "bacteria", "assay": "APDEA in different PVB dispersions at 32° C., ATP analysis (LuminUltra)", "assay_type": "cell-based", "parameters": "bacteria count 6 mo after adding APDEA / bacteria count 1 d after adding APDEA / bacteria count 1 wk after adding APDEA / bacteria count 1 mo after adding APDEA / bacteria count 3 mo after adding APDEA: unit not given here", "experimental": "Tertiary amine, water and PVB-dispersion was mechanically stirred in IKA vertical fixed blade stirrer for sampling in 2-5 minutes. Conditions was industrial clean, meaning no special precautions was taken to prevent contamination, except normal cleanliness and between operations dishwashing procedures.\nWorking temperatures was 20-25 degre Celsius, and all incubations was made in thermostatic 32-degree Celsius incubator ovens for bottled flasks and open petri dishes.\nBefore measuring total ATP, the samples are shaken for 30 seconds in a mechanical mixer. 1 ml of each sample is used in the process of analysing total ATP. The protocol is provided by LuminUltra Technologies.\nThe biocidal effectivity of APDEA in different PVB dispersions was measured as explained above in example 46. Incubation was done at 32° C. and sample tested 1 day (abbreviated as 1d in table XX), 1 week (abbreviated as 1 wk in table XX) and 1, 3 and 6 months (abbreviated as mo in tables XXIII and XXIV) after addition of APDEA."}, "[3]": {"tested_on": "rat", "conditions": "cited from earlier work"}, "[4]": {"conditions": "0.5% APDEA, PVB dispersion FX2, 32° C."}, "[5]": {"conditions": "0.5% APDEA, PVB dispersion FX6, 32° C."}, "[6]": {"conditions": "0.5% APDEA, PVB dispersion MW, 32° C."}, "[7]": {"conditions": "0.5% APDEA, PVB dispersion SX2, 32° C."}, "[8]": {"conditions": "0.5% APDEA, PVB dispersion WX2, 32° C."}, "[9]": {"conditions": "0.5% APDEA, PVB dispersion WX25, 32° C."}, "[10]": {"conditions": "1.0% APDEA, PVB dispersion FX2, 32° C."}, "[11]": {"conditions": "1.0% APDEA, PVB dispersion FX6, 32° C."}, "[12]": {"conditions": "1.0% APDEA, PVB dispersion MW, 32° C."}, "[13]": {"conditions": "1.0% APDEA, PVB dispersion SX2, 32° C."}, "[14]": {"conditions": "1.0% APDEA, PVB dispersion WX2, 32° C."}, "[15]": {"conditions": "1.0% APDEA, PVB dispersion WX25, 32° C."}}}
{"molecule": "NCCCN(CCO)CCO", "note": "[APDEA, N-(3-Aminopropyl) diethanolamine]", "values": [{"measurement": "solubility in water (words)", "setting": "[1]", "value": "water soluble"}, {"measurement": "bacteria count 1 mo after adding APDEA", "setting": "[2]; [4]", "value": 35}, {"measurement": "bacteria count 1 wk after adding APDEA", "setting": "[2]; [4]", "value": 73}, {"measurement": "bacteria count 3 mo after adding APDEA", "setting": "[2]; [4]", "value": 83}, {"measurement": "bacteria count 6 mo after adding APDEA", "setting": "[2]; [4]", "value": 195}, {"measurement": "bacteria count 1 d after adding APDEA", "setting": "[2]; [4]", "value": 25}, {"measurement": "bacteria count 1 mo after adding APDEA", "setting": "[2]; [5]", "value": 40}, {"measurement": "bacteria count 1 wk after adding APDEA", "setting": "[2]; [5]", "value": 33}, {"measurement": "bacteria count 3 mo after adding APDEA", "setting": "[2]; [5]", "value": 65}, {"measurement": "bacteria count 6 mo after adding APDEA", "setting": "[2]; [5]", "value": 96.6}, {"measurement": "bacteria count 1 d after adding APDEA", "setting": "[2]; [5]", "value": 71}, {"measurement": "bacteria count 1 mo after adding APDEA", "setting": "[2]; [6]", "value": 60}, {"measurement": "bacteria count 1 wk after adding APDEA", "setting": "[2]; [6]", "value": 33}, {"measurement": "bacteria count 3 mo after adding APDEA", "setting": "[2]; [6]", "value": 84}, {"measurement": "bacteria count 6 mo after adding APDEA", "setting": "[2]; [6]", "value": 45}, {"measurement": "bacteria count 1 d after adding APDEA", "setting": "[2]; [6]", "value": 82}, {"measurement": "bacteria count 1 mo after adding APDEA", "setting": "[2]; [7]", "value": 85}, {"measurement": "bacteria count 1 wk after adding APDEA", "setting": "[2]; [7]", "value": 66}, {"measurement": "bacteria count 3 mo after adding APDEA", "setting": "[2]; [7]", "value": 48}, {"measurement": "bacteria count 6 mo after adding APDEA", "setting": "[2]; [7]", "value": 79}, {"measurement": "bacteria count 1 d after adding APDEA", "setting": "[2]; [7]", "value": 29}, {"measurement": "bacteria count 1 mo after adding APDEA", "setting": "[2]; [8]", "value": 50}, {"measurement": "bacteria count 1 wk after adding APDEA", "setting": "[2]; [8]", "value": 116}, {"measurement": "bacteria count 3 mo after adding APDEA", "setting": "[2]; [8]", "value": 38.8}, {"measurement": "bacteria count 6 mo after adding APDEA", "setting": "[2]; [8]", "value": 22}, {"measurement": "bacteria count 1 d after adding APDEA", "setting": "[2]; [8]", "value": 59}, {"measurement": "bacteria count 1 mo after adding APDEA", "setting": "[2]; [9]", "value": 98}, {"measurement": "bacteria count 1 wk after adding APDEA", "setting": "[2]; [9]", "value": 95}, {"measurement": "bacteria count 3 mo after adding APDEA", "setting": "[2]; [9]", "value": 177}, {"measurement": "bacteria count 6 mo after adding APDEA", "setting": "[2]; [9]", "value": 93}, {"measurement": "bacteria count 1 d after adding APDEA", "setting": "[2]; [9]", "value": 71}, {"measurement": "biocidal effect as sole biocide", "setting": "[2]; 0.5 and 1 wt % to water phase", "value": "effects similar to NBDA"}, {"measurement": "bacteria count 1 mo after adding APDEA", "setting": "[2]; [10]", "value": 78}, {"measurement": "bacteria count 1 wk after adding APDEA", "setting": "[2]; [10]", "value": 80}, {"measurement": "bacteria count 3 mo after adding APDEA", "setting": "[2]; [10]", "value": 134}, {"measurement": "bacteria count 6 mo after adding APDEA", "setting": "[2]; [10]", "value": 167}, {"measurement": "bacteria count 1 d after adding APDEA", "setting": "[2]; [10]", "value": 66}, {"measurement": "bacteria count 1 mo after adding APDEA", "setting": "[2]; [11]", "value": 100}, {"measurement": "bacteria count 1 wk after adding APDEA", "setting": "[2]; [11]", "value": 22.4}, {"measurement": "bacteria count 3 mo after adding APDEA", "setting": "[2]; [11]", "value": 99}, {"measurement": "bacteria count 6 mo after adding APDEA", "setting": "[2]; [11]", "value": 132}, {"measurement": "bacteria count 1 d after adding APDEA", "setting": "[2]; [11]", "value": 12}, {"measurement": "bacteria count 1 mo after adding APDEA", "setting": "[2]; [12]", "value": 110}, {"measurement": "bacteria count 1 wk after adding APDEA", "setting": "[2]; [12]", "value": 115}, {"measurement": "bacteria count 3 mo after adding APDEA", "setting": "[2]; [12]", "value": 98}, {"measurement": "bacteria count 6 mo after adding APDEA", "setting": "[2]; [12]", "value": 38}, {"measurement": "bacteria count 1 d after adding APDEA", "setting": "[2]; [12]", "value": 75}, {"measurement": "bacteria count 1 mo after adding APDEA", "setting": "[2]; [13]", "value": 98}, {"measurement": "bacteria count 1 wk after adding APDEA", "setting": "[2]; [13]", "value": 81}, {"measurement": "bacteria count 3 mo after adding APDEA", "setting": "[2]; [13]", "value": 92}, {"measurement": "bacteria count 6 mo after adding APDEA", "setting": "[2]; [13]", "value": 98}, {"measurement": "bacteria count 1 d after adding APDEA", "setting": "[2]; [13]", "value": 69}, {"measurement": "bacteria count 1 mo after adding APDEA", "setting": "[2]; [14]", "value": 33}, {"measurement": "bacteria count 1 wk after adding APDEA", "setting": "[2]; [14]", "value": 18}, {"measurement": "bacteria count 3 mo after adding APDEA", "setting": "[2]; [14]", "value": 78}, {"measurement": "bacteria count 6 mo after adding APDEA", "setting": "[2]; [14]", "value": 20}, {"measurement": "bacteria count 1 d after adding APDEA", "setting": "[2]; [14]", "value": 45}, {"measurement": "bacteria count 1 mo after adding APDEA", "setting": "[2]; [15]", "value": 75}, {"measurement": "bacteria count 1 wk after adding APDEA", "setting": "[2]; [15]", "value": 136}, {"measurement": "bacteria count 3 mo after adding APDEA", "setting": "[2]; [15]", "value": 151}, {"measurement": "bacteria count 6 mo after adding APDEA", "setting": "[2]; [15]", "value": 35}, {"measurement": "bacteria count 1 d after adding APDEA", "setting": "[2]; [15]", "value": 72}]}
{"molecule": "[Cl-].[Na+]", "note": "[NaCl, reference compound]", "values": [{"measurement": "LD50 (rat, oral)", "setting": "[3]", "value": 3000, "unit": "mg"}]}
